Values after ≈ are worked out from the molar mass of the structure shown. Read-outs that look alike come from different tables or passages of the source.
Experiments:
AsPc-1 cells [1] = assay: Test I: apoptosis of AsPc-1 pancreatic cancer cells (Annexin V-FITC/PI); format: cell-based; conditions: 1 μM, 72 h
Description: (§1) Pancreatic cancer cell lines (COLO357, PANC-1, Capan-2, AsPc-1 cells and MiaPaCa-2 cells obtained from American Type Culture Collection; ATCC, Rockville, Md.) were treated with 1 μM 3-Cl-AHPC and compound 16 for various times. Apoptosis in cells were analyzed by flow cytometry using Annexin V-FITC binding together with propidium iodide (PI) staining (Annexin V-FITC apoptosis Detection Kit 1, BD Biosciences, San Diego, Calif.). Data acquisition was done on a FACS Calibur flow cytometer (BD) and analyzed with CellQuest software (BD Biosciences). 3-Cl-AHPC and compound 16 mediated inhibition of cell growth were determined by 3-(4,5-dimethylthiazol-2-yl)-2,5-diphenyltetrazolium bromide (MTT) assay. The cells were seeded on 96-well plates at a density of 4×10^4 cells/well in a volume of 200 μl culture medium. 1 μM AHP3 and 3-Cl-AHPC in DMSO (final concentration 0.1%) were added to the cells for various times. […] After discarding the medium, MTT precipitates were solubilized with 200 μl DMSO and the plates read on a BioTeK Synergy HT (BioTeK Instrument Inc., Vermont) at an absorbance 570 nm. […] The spheroids were stained with acridine orange/ethidium bromide staining and immediately visualized and photographed with fluorescence microscope (OLYMPUS CKX41). […] Then spheroids were visualized and photographed with a fluorescence microscope.

[2] = tested on: pancreatic cancer stem cells (CD44+/CD24+ cells obtained from PANC-1, Capan-2 and MiaPaCa-2 cells); assay: Test J: spheroid formation by CD44+/CD24+ pancreatic cancer stem cells; format: cell-based
Description: Apoptosis and Growth Inhibition of Pancreatic Cancer Stem Cells (Obtained from PANC-1, Capan-2 and MiaPaCa-2 Cells) by Compound 16 and 3-Cl-AHPC.
Cells were grown to 70-80% confluence and then trypsinised and washed with sorting buffer (1×PBS, 5% FCS). The cells were resuspended with […] sorting buffer and incubated with 15-20 μl anti-CD24-FITC, anti-CD44-PE primary antibodies for 30 min at ice. The cells were washed and resuspended in 500 μl of sorting buffer and sorted using FACSAria system (BD Immunocytochemistry Systems, Franklin lakes, NJ).
The sorted CD44^+/CD24^+ cells were suspended in serum-free stem cell medium containing DMEM/F12 (1:1) supplemented with B27 (Life Technologies, Gaithersburg, Md.), 20 ng/ml EGF (Biomol International, Plymouth, Pa.)), 20 ng/ml fibroblast growth factor (Biomol International, Plymouth, Pa.), and 100 μg/ml gentamycin. Approximately 150-200 cells per well were seeded in an ultra low-attachment 96-well plate (Corning Inc, Lowell, Mass.). 3-Cl-AHPC and compound 16 were added the day after cells were plated or after 7 days of spheroid formation. Spheriods were photographed and measured utilizing a Olympus microscope (OLYMPUS CKX41) and Olympus microscope digital camera with DP2-BSW software (Olympus soft imaging solutions GmbH, Germany).

Capan-2 cells = assay: Test I: growth inhibition of Capan-2 cells (MTT); format: cell-based; conditions: 1 μM
Description: as §1

COLO357 cells = assay: Test I: apoptosis of COLO357 pancreatic cancer cells (Annexin V-FITC/PI); format: cell-based; conditions: 1 μM, 48 h
Description: as §1

[3] = Test H: aqueous solubility by UV absorbance; format: physicochemical; conditions: for solubility: 22° C.
Description: Standard curves at the UV λmax (330, 350 and 345 nm for 3-Cl-AHPC, 18 and 16, respectively) were generated using 0.245, 0.163, 0.049 and 0.025 mM 3-Cl-AHPC and 0.380, 0.178, 0.053 and 0.027 mM 18 and 16, which were prepared from 1.0% (wt/vol) solutions of compounds in Me2SO. […] Measurements for maximum solubilities in distilled water (pH 5) and phosphate-buffered saline (PBS, pH 7.2) at 22° C. were made by UV absorbance using solutions obtained after saturation at higher temperatures, overnight incubation at 22° C., and centrifugation to remove undissolved material.

FFMA-AML cells = assay: Annexin V-FITC binding by flow cytometry, FFMA-AML cells; format: cell-based, human; conditions: 1 μM, varying times
Description: FIG. 3 illustrates the induction of apoptosis and cell death as assessed using Annexin V-FITC binding together with propidium iodide (PI) staining. FFMA-AML and TF(vSRC) cells were exposed to 1 μM 3-Cl-AHPC or compound 16. A) Apoptosis in FFMA-AML and TF(vSRC) cells following 24 and 48 h ARR exposure, respectively. The plots show the distribution of classes of fluorescence intensity versus cell number. The bottom left quadrant represents live cells (both annexin V-FITC and PI negative); the bottom right quadrant represents early apoptotic cells (annexin V-FITC positive but PI negative); and the top right quadrant represents late apoptotic cells (both annexin V-FITC and PI positive). B) Percentage of early apopotic Annexin V-positive cells at the indicated times. […] (p values of <0.05, <0.01 and <0.001 respectively, as determined by the t test).
Apoptosis of cells was determined by (1) acridine orange and ethidium bromide-staining to assess cells with nuclear fragmentation and chromatin condensation as previously described (Farhana L. et al., Cancer Res. 2006; 65:4909-4917) and (2) flow cytometry assessing Annexin V-FITC binding together with propidium iodide staining (Annexin V-FITC apoptosis Detection kit 1, BD Biosciences, San Diego, Calif.). Data acquisition was done on a FACS Calibur flow cytometer (BD) and analyzed with CellQuest software. […]

caspase-3 = assay: Caspase-3 activation and cleavage in AML cells; format: cell-based; conditions: FFMA-AML and TF(vSRC) cells; 1 μM; lysates
Description: FIG. 4 illustrates 3-Cl-AHPC and compound 16-mediated caspase-3 activation and cleavage of caspase-3. A) Activation of caspase-3 in FFMA-AML and TF(vSRC) cells following exposure to 1 μM 3-Cl-AHPC and compound 16 for varying times. B) Generation of the caspase-3 (17 kDa) fragment and caspase-3 protein levels (α-tubulin used as loading control). Columns represent mean of three independent experiments. […] (p value is <0.01 as determined by t test).
To further document 3-Cl-AHPC and compound 16-mediated apoptosis in the FFMA-AML and TF(v-SRC) cells, cells were exposed to 1 μM 3-Cl-AHPC or compound 16 for varying times, and then annexin V-FITC binding assessed using flow cytometry.

AsPc-1 cells [4] = assay: Test I: growth inhibition of AsPc-1 cells (MTT); format: cell-based; conditions: 1 μM
Description: as §1

MiaPaCa-2 cells = assay: Test I: growth inhibition of MiaPaCa-2 cells (MTT); format: cell-based; conditions: 1 μM
Description: as §1

Structure (SMILES)	induction of apoptosis (AsPc-1 cells [1])	spheroid formation by CD24+/CD44+ cells [2]	inhibition of growth (Capan-2 cells)	cells in which induction of apoptosis was noted (COLO357 cells)	Solubility (μM) at 22° C. PBS (pH 7.2) ([3]; PBS pH 7.2)	solubility ([3]; thermodynamic from solid, distilled water pH 5, read-out: Solubility (μM) at 22° C. Distilled water (pH 5))	annexin V-FITC-positive cells (FFMA-AML cells)	caspase-3 activation (17-kDa cleaved caspase-3, caspase-3 activity) (caspase-3)	inhibition of growth (AsPc-1 cells [4])	inhibition of growth (MiaPaCa-2 cells)	solubility ([3]; distilled water pH 5, read-out: Solubility (μM) at 22° C. Distilled water (pH 5))	solubility ([3]; phosphate-buffered saline, aqueous buffer, thermodynamic from solid, PBS pH 7.2, read-out: Solubility (μM) at 22° C. PBS (pH 7.2))
O=C(O)C=Cc1ccc(-c2ccc(O)c(C34CC5CC(CC(C5)C3)C4)c2)c(Cl)c1 [Compound 3-Cl-AHPC, 4-[3-(1-adamantyl)-4-hydroxyphenyl]-3-chlorocinnamic acid, reference compound]	Apoptosis was also noted	inhibited their ability to form spheroids	significant inhibition of growth	80%	Not detectable	4.5 µM (≈ 1.84 µg/mL)	progressive increase in annexin V-FITC-positive cells with time	induced caspase-3 activation	significant inhibition of growth	significant inhibition of growth		
O=C(O)/C=C/c1cnc(-c2ccc(O)c(C34CC5CC(CC(C5)C3)C4)c2)nc1 [Compound 16, (E)-3-[2-(3-(1-Adamantyl)-4-hydroxyphenyl)-5-pyrimidinyl]-2-propenoic acid]	Apoptosis was also noted	inhibited their ability to form spheroids	significant inhibition of growth	80%			progressive increase in annexin V-FITC-positive cells with time	induced caspase-3 activation	significant inhibition of growth	significant inhibition of growth	54 µM (≈ 20.3 µg/mL)	440 µM (≈ 166 µg/mL)

From patent US9096544B2, “Therapeutic compounds” (Wayne State University, priority 2009, dated 2015)
